Test results reported in PMC10382584, “Macrocyclization of linear molecules by deep learning to facilitate macrocyclic drug candidates discovery” (Nature Communications, 2023).
Values joined by “and” are separate entries in the source; they are usually repeats but may differ in a detail not shown here. Identical values can stand only once. Like-named read-outs stand apart in the source and are kept apart here.

How the values were obtained:
SET-2 cells = assay: Cell proliferation assay (CCK-8), SET-2 cells; type: cell-based, human
[1] = system: JAK2-STAT signaling pathways in HEL cells; assay: Western blot analysis of JAK2-STAT signaling in HEL cells; type: cell-based, human; details: 0.3-10 μM, 0.5 h
Method: HEL cells were added into six-well plates (2 × 10^6 cells/well) and then put into the incubator (37 °C, 5% CO2). After 24 h, the tested compounds were diluted in RPMI-1640 medium (final DMSO concentration = 0.1%) with different concentrations (0 μM, 0.3 μM, 1 μM, 3 μM, and 10 μM) was added separately into the wells, and incubated for another 0.5 h, then cells were collected and lysed. Proteins from each sample were isolated by SDS-PAGE and transferred to PVDF membrane. The membranes were blocked in 5% milk (TBST) for 1 h at room temperature, and subsequently incubated with the indicated primary antibody in blocking buffer overnight at 4 °C. Primary antibodies were used as follows: p-Y1007/8-JAK2 (#3771, CST, 1:1000), p-Y221-JAK2 (#11150, SAB, 1:500), p-Y705-STAT3 (#11045, SAB, 1:1000), p-Y694-STAT5 (#13386, SAB, 1:2000), STAT3 (10253-2-AP, Proteintech, 1:4000), STAT5 (12071-1-AP, Proteintech, 1:4000), JAK2 (E-AB-70193, Elabscience, 1:2000) and β-Actin (E-AB-20034, Elabscience, 1:10000). Then the membranes were washed with TBST (3 × 5 min), incubated with HRP-conjugated secondary antibody for 1 h at room temperature, washed again, and then exposed by chemiluminescence method using the enhanced ECL immunoblotting system (Tanon, Shanghai, China). All the experiments were repeated in triplicate. Blot bands were quantified by densitometry using Image J software v1.51.

DSS-induced colitis mice = assay: In vivo efficacy study, DSS-induced colitis model; parameters: species or system male BALB/c mice; details: for DAI score (Fig. 6b) / Body weight (Fig. 6a): Compound 3 5 mg/kg, individual mice
Method: Model mice were divided into four groups and eight mice were included in each group on day 8. […] Meanwhile, solvent was given intragastrically to the control group and model group. On day 15, the mice were sacrificed, and the length and weight of each colon were measured.
Body weight, the stool consistency, and the presence of blood in feces were recorded daily in the morning. […] The maximum score was 9, which was the sum of the scores. About 1-cm colon tissue, which is 0.5 cm away from the anal margin, was collected, and the ileocecal area was used for histopathological examination. After H&E staining, the tissues were scored under single-blind conditions to evaluate the levels of inflammation and tissue damage in the colons following the criteria proposed by ref. [62]. Statistical analyses were performed using SPSS v24.0.

[2] = 3.5% DSS colitis mice, compound 3 5 mg/kg, Fedratinib 10 mg/kg, intragastric, day 8 to day 14

Cc1cnc2nc1Nc1cccc(c1)COCC=CCOCc1cc(ccc1OCCN1CCCC1)N2 [Compound 3]
Inhibition (%) (SET-2 cells; SET-2 cell lines, C 0.0977 μM, single wells of replicate 1 and replicate 2): -27.9889% and -18.4466% and -28.7656% and 0.261% and 11.375% and 10.333% | Inhibition (%) (SET-2 cells; SET-2 cell lines, C 0.1953 μM, single wells of replicate 1 and replicate 2): -32.7601% and -23.4397% and -24.3273% and 16.816% and 17.164% and 5.470% | Inhibition (%) (SET-2 cells; SET-2 cell lines, C 0.3906 μM, single wells of replicate 1 and replicate 2): -24.5492% and -19.4452% and -33.2039% and 12.880% and 13.806% and 4.892% | Inhibition (%) (SET-2 cells; SET-2 cell lines, C 0.7813 μM, single wells of replicate 1 and replicate 2): -42.4133% and -41.7476% and -46.4078% and 9.291% and 13.806% and 8.828% | Inhibition (%) (SET-2 cells; SET-2 cell lines, C 1.5625 μM, single wells of replicate 1 and replicate 2): -43.4119% and -41.8585% and -40.6380% and 14.617% and 26.541% and 23.994% | Inhibition (%) (SET-2 cells; SET-2 cell lines, C 3.1250 μM, single wells of replicate 1 and replicate 2): -19.0014% and -10.7906% and -7.5728% and 27.931% and 19.711% and 22.952% | Inhibition (%) (SET-2 cells; SET-2 cell lines, 6.2500 μM, single wells, replicates 1 and 2, 6.25 µM): 17.1706% and 27.3786% and 29.5978% and 31.635% and 25.499% and 11.259% | Inhibition (%) (SET-2 cells; SET-2 cell lines, 12.5000 μM, single wells, replicates 1 and 2, 12.5 µM): 59.6671% and 60.0000% and 61.2205% and 43.097% and 40.782% and 34.993% | IC50 (SET-2 cells; SET-2 cell lines, mean of 2 replicates, read-out: IC50/μM mean, cellular antiproliferative activity): 11.1 µM | IC50 (SET-2 cells; SET-2 cell lines, mean ± sd of 2 replicates, read-out: IC50/μM mean ± sd, cellular antiproliferative activity): 11.1 ± 0.13 µM | IC50 (SET-2 cells; SET-2 cell lines, single-replicate fits, read-out: IC50/μM (individual replicates), cellular antiproliferative activity): 11 µM and 11.2 µM | IC50 (SET-2 cells; SET-2 cells, 72 h, mean ± SD, read-out: Cellular Antiproliferative Activity (IC50) SET-2): 11.1 ± 0.13 µM | activation of downstream signaling molecule STAT3 and STAT5 [1]: significantly inhibited | phosphorylation of JAK2 at Y1007/8 site [1]: increased | phosphorylation of JAK2 at Y221 site ([1]; dose-dependent): efficiently blocked | histological scores (H&E, Ameho criteria) (DSS-induced colitis mice; 3.5% DSS colitis mice, compound 3 5 mg/kg, Fedratinib 10 mg/kg): lower | body weight change (DSS-induced colitis mice; [2]): alleviate the decrease of body weight | disease activity index (DAI) scores (DSS-induced colitis mice; [2]): significantly decreased | ratio of colon weight to length (DSS-induced colitis mice; 3.5% DSS colitis mice, compound 3 5 mg/kg, Fedratinib 10 mg/kg, compared to the model group): decreased | DAI score (Fig. 6b) (DSS-induced colitis mice; day 0): 0 | Body weight (Fig. 6a) (DSS-induced colitis mice; day 0, 5 mg/kg): 21.4 and 20.3 and 22.6 and 21.9 (2×) and 23.4 and 23.9 and 21.5 | DAI score (Fig. 6b) (DSS-induced colitis mice; day 1, 5 mg/kg): 0 (7×) and 1 | Body weight (Fig. 6a) (DSS-induced colitis mice; day 1, 5 mg/kg, in g (unit assumed)): 22.2 and 21 and 23.1 and 22.4 and 23.5 and 21.4 and 24.6 and 22.7 | DAI score (Fig. 6b) (DSS-induced colitis mice; day 2, 5 mg/kg): 2 and 0 (5×) and 1 (2×) | Body weight (Fig. 6a) (DSS-induced colitis mice; day 2, 5 mg/kg, in g (unit assumed)): 21.8 and 22.8 and 22.4 | DAI score (Fig. 6b) (DSS-induced colitis mice; day 3, 5 mg/kg): 0 (5×) and 2 (3×) | DAI score (Fig. 6b) (DSS-induced colitis mice; day 4, 5 mg/kg): 2 (4×) and 0 and 1 (2×) and 3 | Body weight (Fig. 6a) (DSS-induced colitis mice; day 4, 5 mg/kg, in g (unit assumed)): 23.2 and 19.6 and 22.9 and 22.3 and 22.4 and 22 and 21.1 and 22.5 | DAI score (Fig. 6b) (DSS-induced colitis mice; day 5, 5 mg/kg): 3 (2×) and 5 and 1 (3×) and 6 and 2 | Body weight (Fig. 6a) (DSS-induced colitis mice; day 5, 5 mg/kg, in g (unit assumed)): 23 and 19.1 and 22 and 19.4 and 20.5 and 20.9 and 20.6 and 21.4 | DAI score (Fig. 6b) (DSS-induced colitis mice; day 6, 5 mg/kg): 4 (2×) and 5 and 1 (2×) and 2 and 7 and 6 | Body weight (Fig. 6a) (DSS-induced colitis mice; day 6, 5 mg/kg, in g (unit assumed)): 22.2 and 18.3 and 21.8 and 20.1 and 18.5 and 18.4 and 20.2 and 21.3 | DAI score (Fig. 6b) (DSS-induced colitis mice; day 7, 5 mg/kg): 7 (3×) and 2 (2×) and 6 and 3 and 4 | Body weight (Fig. 6a) (DSS-induced colitis mice; day 7, 5 mg/kg, in g (unit assumed)): 20.9 and 16.9 and 20.5 and 19.8 and 16.7 and 16.5 and 20.1 and 19.7 | DAI score (Fig. 6b) (DSS-induced colitis mice; day 8, 5 mg/kg): 0 (3×) and 5 and 3 (2×) and 1 (2×) | Body weight (Fig. 6a) (DSS-induced colitis mice; day 8, 5 mg/kg, in g (unit assumed)): 20.9 and 15.8 and 22.3 and 21.2 and 16.4 and 21.3 and 21.8 | DAI score (Fig. 6b) (DSS-induced colitis mice; day 9, 5 mg/kg): 1 and 0 (5×) and 2 | Body weight (Fig. 6a) (DSS-induced colitis mice; day 9, 5 mg/kg, in g (unit assumed)): 20.2 and 15.8 and 22.7 and 22.9 and 16.5 and 21.9 and 22 | DAI score (Fig. 6b) (DSS-induced colitis mice; day 10, 5 mg/kg): 1 (4×) and 2 (3×) | Body weight (Fig. 6a) (DSS-induced colitis mice; day 10, 5 mg/kg, in g (unit assumed)): 19.5 and 15.3 and 22.2 and 22.8 and 16.1 and 21.9 and 22.6
